Reference: US9187411B2, “Leukotriene B4 antagonist compound” (Eli Lilly and Company, priority 2012, dated 2015)
Marks after values point to notes of the source that are not given here.

Test system: BCA atherosclerosis lesions in LDLr KO mice
Assay: LDLr KO mouse brachiocephalic arch atherosclerosis model
Assay type: in vivo
Details: for Lesion area: 4 weeks, vehicle 50,686; for Macrophage area (brown color): vehicle 18,571; for reduction of lesion area compared to vehicle / reduction of BCA cholesteryl ester (CE) content compared to vehicle: Table 3; for Cholesteryl ester: BCA, vehicle 22.50
Description: The compound of Example 2 is tested in the low density lipoprotein (LDL) receptor knock-out (LDLr KO) mouse model of atherosclerosis. Mice deficient in the ability to encode and synthesize the LDL receptor (LDLr KO) are hypercholesterolemic, especially when maintained on high cholesterol diet, Ishibashi et al. J. Clin. Invest. (1994), 93: 1885-1893. In the large arteries, LDLr KO mice develop spontaneous atherosclerotic lesions that mimic major features of the cellular, lipid, and extracellular matrix composition of human lesions. An important constituent of both human and mouse lesions is the lipid-laden macrophage or “foam cell” in the arterial subendothelium. The esterified cholesterol stored by macrophages is a surrogate for lesion development. Assay of esterified cholesterol directly from mouse arterial tissue (by LC/MS) provides a rapid index of lesion burden. The LDLr KO model used in the present study takes advantage of the rapid development of mature atherosclerotic plaques in the brachiocephalic artery (BCA). Primary endpoints for the study are arterial cholesteryl ester content and lesion dimensions obtained by light microscopic measurement of lesions in serial cross-sections of the artery.
LDLr KO mice (JAX #002207), 7 week old males, were obtained from The Jackson Laboratory (Bar Harbor, Me.). Upon arrival at the testing facility and continuing for a total of 10 weeks, mice were housed individually and fed the atherogenic diet TD.88137 (Teklad) ad libitum. During the first 6 weeks, the mice rested undisturbed in their cages. During the last 4 weeks, the mice received the test compound twice daily by oral gavage.

CCCc1c(NC(=O)CC(C)(C)C(=O)[O-])cccc1OCCCOc1cc(O)c(-c2ccc(F)cc2)cc1CC.[Na+] [Example 2, Sodium 4-[[3-[3-[2-ethyl-4-(4-fluorophenyl)-5-hydroxy-phenoxy]propoxy]-2-propyl-phenyl]amino]-2,2-dimethyl-4-oxo-butanoate]
Lesion area (3 mg/kg BID oral gavage): 23700 µm²
Macrophage area vs. vehicle (3 mg/kg BID, p < 0.02): −65%*
Lesion area vs. vehicle (3 mg/kg BID, p < 0.049): −53%*
Cholesteryl ester vs. vehicle (3 mg/kg BID, p = NS): −8%
Macrophage area (brown color) (3 mg/kg BID): 6520 µm²
reduction of lesion area compared to vehicle (3 mg/kg b.i.d.): 53%
Lesion area (10 mg/kg BID oral gavage): 21200 µm²
Macrophage area vs. vehicle (10 mg/kg BID, p < 0.002): −84%*
Lesion area vs. vehicle (10 mg/kg BID, p < 0.034): −58%*
Cholesteryl ester vs. vehicle (10 mg/kg BID, p < 0.09): −18%
Macrophage area (brown color) (10 mg/kg BID): 2860 µm²
reduction of BCA cholesteryl ester (CE) content compared to vehicle (10 mg/kg b.i.d., p<0.09): 18%
reduction of lesion area compared to vehicle (10 mg/kg b.i.d.): 58%
Lesion area (30 mg/kg BID oral gavage): 17100 µm²
Lesion area vs. vehicle (30 mg/kg BID, p < 0.017): −66%*
Cholesteryl ester vs. vehicle (30 mg/kg BID, p < 0.04): −23%*
Macrophage area vs. vehicle (30 mg/kg BID, p < 0.09): −54%
Macrophage area (brown color) (30 mg/kg BID): 8520 µm²
reduction of BCA cholesteryl ester (CE) content compared to vehicle (30 mg/kg b.i.d., p<0.04): 23%
reduction of lesion area compared to vehicle (30 mg/kg oral b.i.d., p<0.017): 66%
Cholesteryl ester (3 mg/kg BID): 17.95 nmol
Cholesteryl ester (10 mg/kg BID): 16.97 nmol
Cholesteryl ester (30 mg/kg BID): 14.51 nmol
